This note sets out measurements from patent US4198349A, “Benzylideneaniline derivatives” (William H. Rorer, Inc., priority 1978, dated 1980).

The experiment relates to croton oil-induced inflammation in the mouse's ear. The experiment can be described thus: Topical anti-inflammatory activity after immediate application in croton oil-induced inflammation in the mouse's ear. The class given is in vivo, mouse (female CF1). Particulars: 4 h, Topical Dose 4 mg/ear, immediate application with 2% croton oil, ears taken four hours after application, read-out: % Inhibition of Ear Edema. How it is done:
Testing of the anti-inflammatory effects of the compounds of Formula I were performed utilizing a modification of the experimental techniques described by Tonelli, G., Thibault, L. and Ringler, L., "A Bioassay for the Concomitant Assessment of the Anti-phlogistic and Thymolytic Activities of Topically Applied Corticoids": Endocrinology 77, 625 (1965) and Roszkowski, A. P., Rooks, W. H. II, Tomolonis, A. J., and Miller, L. M., "Anti-inflammatory and Analgetic Properties of the d-2-(6-Methoxy-2'-Naphthyl)Propionic Acid (Naproxen)". J. Pharm. Exp. Ther., 179, 114 (1971).
The topical anti-inflammatory activity of the test compounds is measured by immediate application at the time of induction of croton oil-induced inflammation in the mouse's ear.
0.1 ml. of a solution containing 2% croton oil (Amend Drug and Chemical Co., Irvington, N.J.), 73% diethyl ether, U.S.P. (Corco Chemical Corp., Fairless Hills, Pa.), 20% pyridine (J. T. Baker Chemical Co., Phillipsburg, Pa.) and 5% distilled water was applied to the left ear of female CF1 mice, in groups of six, during light ether anesthesia.
Four hours after application of either the irritant solution or the irritant solution containing the test compound, the mice were sacrificed by cervical dislocation, both ears were amputated and circular sections, one from each ear, were removed with a No. 4 cork borer (7 mm, i.d.). Each ear section was then weighed. The increase in weight due to edema formation caused by the croton oil in the treated ear and the reduction of that edema caused by drug treatment was determined by subtracting the weight of the untreated right ear section from that of the treated left ear section.
The anti-inflammatory effects of the test compounds expressed as percent inhibition are calculated by: [formula]
TOPICAL ANTI-INFLAMMATORY ACTIVITY AFTER
IMMEDIATE APPLICATION IN CROTON OIL-INDUCED
INFLAMMATION IN THE MOUSE'S EAR

Regarding `Cc1c(Cl)cccc1N=Cc1ccc(Cl)cc1` [N-(p-chlorobenzylidene)-2-methyl-3-chloroaniline], the inhibition in vivo at 4 mg/ear was found to be 46.8%.
To `Clc1cccc(N=Cc2ccccc2Cl)c1` [N-(o-chlorobenzylidene)-m-chloroaniline] belongs 4%.
`Brc1ccc(N=Cc2ccc(-c3ccccc3)cc2)cc1` [N-(p-phenylbenzylidene)-p-bromoaniline]: the inhibition in vivo at 4 mg/ear is 25.5%.
`Fc1ccc(C=Nc2ccccc2C(F)(F)F)cc1` [N-(p-fluorobenzylidene)-o-trifluoromethylaniline]: the inhibition in vivo at 4 mg/ear was determined as 21.3%.
`Cc1cc(Cl)ccc1N=Cc1ccc(Cl)cc1` [N-(p-chlorobenzylidene)-2-methyl-4-chloroaniline]: the inhibition in vivo at 4 mg/ear amounted to 23%.
For the compound `Cc1c(Cl)cccc1N=Cc1ccccc1O` [N-(o-hydroxybenzylidene)-2-methyl-3-chloroaniline], the inhibition in vivo at 4 mg/ear came out at 38.5%.
As to `Oc1ccccc1C=Nc1cccc(C(F)(F)F)c1` [N-(o-hydroxybenzylidene)-m-(α,α,α-trifluorotoluidine)], the inhibition in vivo at 4 mg/ear worked out at 21.6%.
For `Cc1ccc(N=Cc2ccc(-c3ccccc3)cc2)cc1` [N-(p-phenylbenzylidene)-p-methylaniline], the inhibition in vivo at 4 mg/ear was 27%.
Then `Cc1ccc(N=Cc2ccc(Cl)cc2)cc1` [N-(p-chlorobenzylidene)-p-methylaniline], with 16.2%.
For the compound `C(=Nc1ccccc1)c1ccccc1` [N-benzylideneaniline, N-Benzylideneaniline], the inhibition in vivo at 4 mg/ear came to 4.9%.
To `Clc1cc(C=Nc2ccc(Br)cc2)ccc1C1CCCCC1` [N-(3-chloro-4-cyclohexylbenzylidene)-p-bromoaniline] belongs 1.5%; to `Cc1cc(F)ccc1N=Cc1ccccc1` [N-benzylidene-2-methyl-4-fluoroaniline], 26.8%.
Consider `Cc1cccc(N=Cc2ccccc2O)c1C` [N-(o-hydroxybenzylidene)-2,3-dimethylaniline], for which the inhibition in vivo at 4 mg/ear was found to be 27.8%.
To `Cc1ccc(N=Cc2ccccc2)cc1` [N-benzylidene-p-toluidine] belongs 45%; to `Fc1cccc(N=Cc2ccc(Cl)cc2)c1` [N-(p-chlorobenzylidene)-m-fluoroaniline], 10.8%; to `Cc1ccccc1N=Cc1ccccc1` [N-benzylidene-o-toluidine], 5.5%.
In the case of `Oc1ccccc1C=Nc1ccc(F)cc1` [N-(o-hydroxybenzylidene)-p-fluoroaniline], the inhibition in vivo at 4 mg/ear amounted to 21.5%.
Consider `Cc1c(Cl)cccc1N=Cc1ccccc1Cl` [N-(o-chlorobenzylidene)-3-chloro-2-methylaniline], for which the inhibition in vivo at 4 mg/ear came out at 44.3%.
As for `Clc1ccc(N=Cc2ccccc2)cc1` [N-benzylidene-p-chloroaniline], the inhibition in vivo at 4 mg/ear turned out to be 29.3%.
For the compound `C(=Nc1ccccc1)c1ccc(-c2ccccc2)cc1` [N-(p-phenylbenzylidene)-aniline, N-(p-phenylbenzylidene)aniline], the inhibition in vivo at 4 mg/ear turned out to be 24.7%.
On to `Oc1ccccc1C=Nc1ccccc1` [N-(o-hydroxybenzylidene)-aniline, N-(o-hydroxybenzylidene)aniline], for which the inhibition in vivo at 4 mg/ear turned out to be 5.3%.
Then `Clc1ccc(C=Nc2cccc(Cl)c2)cc1` [N-(p-chlorobenzylidene)-m-chloroaniline], with 23.6%; and `Clc1ccc(N=Cc2c(Cl)cccc2Cl)cc1` [N-(2,6-dichlorobenzylidene)-p-chloroaniline], with 9.1%; and `Clc1cc(Br)ccc1N=Cc1ccc(-c2ccccc2)cc1` [N-(p-phenylbenzylidene)-2-chloro-4-bromoaniline], with 33.9%.
For `Fc1ccc(N=Cc2ccc(Cl)cc2)cc1` [N-(p-chlorobenzylidene)-p-fluoroaniline], the inhibition in vivo at 4 mg/ear was found to be 45.2%.
In the case of `Fc1ccc(N=Cc2ccc(Cl)cc2)c(C(F)(F)F)c1` [N-(p-chlorobenzylidene)-4-fluoro-2-trifluoromethylaniline], the inhibition in vivo at 4 mg/ear is 36.5%.
To `Fc1ccc(N=Cc2ccccc2Cl)cc1` [N-(o-chlorobenzylidene)-p-fluoroaniline] belongs 24.3%; to `Fc1ccc(N=Cc2ccc(Br)cc2)c(C(F)(F)F)c1` [N-(p-bromobenzylidene)-4-fluoro-2-trifluoromethylaniline], 18.8%; to `Fc1ccc(N=Cc2cccc(Cl)c2)cc1` [N-(m-chlorobenzylidene)-p-fluoroaniline], 9.1%.
Regarding `Fc1ccc(N=Cc2ccc(C3CCCCC3)c(Cl)c2)cc1` [N-(3-chloro-4-cyclohexylbenzylidene)-p-fluoroaniline], the inhibition in vivo at 4 mg/ear was 6.8%.
Then `CCc1ccc(N=Cc2ccccc2)cc1` [N-benzylidene-p-ethylaniline], with 30.5%.
